Reference: ChEMBL document CHEMBL4813962, “Design, synthesis and biological evaluation of sulfamoylphenyl-quinazoline derivatives as potential EGFR/CAIX dual inhibitors” (Eur J Med Chem, 2021)

Legend:
A549 = test: cells; format: functional, cell-based; settings: Homo sapiens, A549, 72 h;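 also: antiproliferative effect read out as loss of cell viability by MTT assay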
A-431 = test: cells; format: functional, cell-based; settings: Homo sapiens, A-431, 72 h
Description: Antiproliferative activity against human A-431 cells assessed as reduction in cell viability incubated for 72 hrs by MTT assay

NCI-H1975 = test: Antiproliferative activity against human NCI-H1975 cells assessed as reduction in cell viability incubated for 72 hrs by MTT assay; format: functional, cell-based; settings: NCI-H1975, 72 h
[1] = molecular target: Epidermal growth factor receptor (Homo sapiens, UniProt P00533)
Description: Inhibition of recombinant human N-terminal GST-tagged EGFR (669 to 1210 residues) expressed in baculovirus expression system using peptide as substrate incubated for 2 hrs followed by substrate addition and measured after 30 mins by TR-FRET assay

[2] = molecular target: Epidermal growth factor receptor (Homo sapiens, UniProt P00533, T790M)
Carbonic anhydrase 2 = Carbonic anhydrase 2 (Homo sapiens, UniProt P00918); test: Inhibition of human carbonic anhydrase 2 using p-nitrophenyl acetate as substrate by UV-VIS spectrophotometric analysis
Carbonic anhydrase 9 = Carbonic anhydrase 9 (Homo sapiens, UniProt Q16790)
Description: Inhibition of human carbonic anhydrase 9 using p-nitrophenyl acetate as substrate by UV-VIS spectrophotometric analysis

Chain of Epidermal growth factor receptor (Homo sapiens, UniProt P00533, T790M) (P00533 25-1210 T790M limits assumed): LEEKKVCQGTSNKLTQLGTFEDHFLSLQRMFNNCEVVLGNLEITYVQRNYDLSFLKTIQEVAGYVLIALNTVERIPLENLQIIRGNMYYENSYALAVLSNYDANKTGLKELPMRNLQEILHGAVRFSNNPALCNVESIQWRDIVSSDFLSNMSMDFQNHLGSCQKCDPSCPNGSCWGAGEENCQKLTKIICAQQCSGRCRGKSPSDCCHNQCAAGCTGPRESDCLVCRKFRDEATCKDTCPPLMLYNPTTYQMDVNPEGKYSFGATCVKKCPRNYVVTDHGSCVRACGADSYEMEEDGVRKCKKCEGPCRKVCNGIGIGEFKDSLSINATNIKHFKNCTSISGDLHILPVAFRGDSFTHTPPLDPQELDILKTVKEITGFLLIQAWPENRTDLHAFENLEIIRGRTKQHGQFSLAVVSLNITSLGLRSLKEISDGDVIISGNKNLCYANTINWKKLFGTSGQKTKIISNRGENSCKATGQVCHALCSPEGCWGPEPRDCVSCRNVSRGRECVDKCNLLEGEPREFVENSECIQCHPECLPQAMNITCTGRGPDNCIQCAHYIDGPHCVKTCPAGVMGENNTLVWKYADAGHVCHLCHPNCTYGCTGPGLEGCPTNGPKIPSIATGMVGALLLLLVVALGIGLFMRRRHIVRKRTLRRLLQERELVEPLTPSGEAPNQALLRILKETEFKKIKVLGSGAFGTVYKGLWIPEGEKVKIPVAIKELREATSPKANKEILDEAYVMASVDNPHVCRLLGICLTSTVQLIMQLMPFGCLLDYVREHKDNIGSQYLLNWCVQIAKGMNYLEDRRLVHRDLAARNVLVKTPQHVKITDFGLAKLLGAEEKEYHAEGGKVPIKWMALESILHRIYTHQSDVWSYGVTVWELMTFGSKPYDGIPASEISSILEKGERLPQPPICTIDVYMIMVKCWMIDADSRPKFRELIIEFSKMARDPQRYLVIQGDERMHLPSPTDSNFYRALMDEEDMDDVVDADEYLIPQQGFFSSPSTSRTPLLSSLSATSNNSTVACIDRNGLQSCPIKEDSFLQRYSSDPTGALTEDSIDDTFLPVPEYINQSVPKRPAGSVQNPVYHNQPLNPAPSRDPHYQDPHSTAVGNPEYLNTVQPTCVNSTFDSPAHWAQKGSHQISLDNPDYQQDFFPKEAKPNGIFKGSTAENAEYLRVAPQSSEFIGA
Chain of Epidermal growth factor receptor (Homo sapiens, UniProt P00533) (P00533 whole entry): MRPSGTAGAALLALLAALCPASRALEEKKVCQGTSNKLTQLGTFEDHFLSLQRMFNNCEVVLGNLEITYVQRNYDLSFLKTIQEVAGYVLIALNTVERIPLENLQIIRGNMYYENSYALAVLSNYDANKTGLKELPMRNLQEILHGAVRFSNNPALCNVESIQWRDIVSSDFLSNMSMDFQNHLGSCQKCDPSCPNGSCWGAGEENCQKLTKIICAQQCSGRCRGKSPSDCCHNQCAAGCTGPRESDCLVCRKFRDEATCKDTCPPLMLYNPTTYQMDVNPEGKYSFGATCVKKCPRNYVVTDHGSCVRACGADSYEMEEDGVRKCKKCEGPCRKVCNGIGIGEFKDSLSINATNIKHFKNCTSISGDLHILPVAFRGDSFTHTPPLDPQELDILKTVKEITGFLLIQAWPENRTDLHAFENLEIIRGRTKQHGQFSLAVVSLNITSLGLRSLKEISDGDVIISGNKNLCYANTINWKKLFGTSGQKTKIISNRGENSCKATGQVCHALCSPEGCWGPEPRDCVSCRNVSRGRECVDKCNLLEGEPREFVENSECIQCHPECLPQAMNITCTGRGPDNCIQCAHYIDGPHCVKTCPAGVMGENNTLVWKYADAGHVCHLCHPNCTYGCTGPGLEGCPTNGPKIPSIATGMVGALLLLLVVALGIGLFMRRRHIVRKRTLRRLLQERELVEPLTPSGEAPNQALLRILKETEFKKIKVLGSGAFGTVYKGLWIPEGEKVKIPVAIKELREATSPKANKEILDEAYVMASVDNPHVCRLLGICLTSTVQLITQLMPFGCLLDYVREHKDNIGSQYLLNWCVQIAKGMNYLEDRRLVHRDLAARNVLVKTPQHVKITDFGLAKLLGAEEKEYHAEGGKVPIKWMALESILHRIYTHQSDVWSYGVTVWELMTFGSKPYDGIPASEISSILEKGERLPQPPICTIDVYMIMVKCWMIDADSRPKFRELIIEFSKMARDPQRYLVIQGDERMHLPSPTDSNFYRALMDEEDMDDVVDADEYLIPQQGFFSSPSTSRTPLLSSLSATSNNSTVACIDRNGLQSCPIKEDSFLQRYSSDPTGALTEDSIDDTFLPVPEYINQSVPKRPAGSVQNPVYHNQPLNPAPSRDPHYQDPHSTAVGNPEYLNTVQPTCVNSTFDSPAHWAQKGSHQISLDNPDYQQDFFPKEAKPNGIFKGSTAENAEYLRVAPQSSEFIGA

SMILES | IC50 (A549) [µM] | IC50 (A-431) [µM] | IC50 (NCI-H1975) [µM] | IC50 [1] [µM] | IC50 [2] [µM] | IC50 (Carbonic anhydrase 2) [µM] | IC50 (Carbonic anhydrase 9) [µM]
COc1cc2ncnc(Nc3cccc(C)c3)c2cc1OCCCCC(=O)Nc1ccc(S(N)(=O)=O)cc1 | 16 | 7.46 | 32.1 |  |  |  | 
COc1cc2ncnc(Nc3cccc(F)c3)c2cc1OCCCCC(=O)Nc1ccc(S(N)(=O)=O)cc1 | > 40 | 29.9 | > 40 |  |  |  | 
CCc1ccc(Nc2ncnc3cc(OC)c(OCCCCC(=O)Nc4ccc(S(N)(=O)=O)cc4)cc23)cc1 | 12.1 | 7.22 | 10.3 |  |  |  | 
NS(=O)(=O)c1ccc(NC(=S)Nc2ccc3ncnc(Nc4cccc(Br)c4)c3c2)cc1 | 25 | 20.7 | 11 |  |  |  | 
COc1cc2ncnc(Nc3ccccc3)c2cc1OCCCCC(=O)Nc1ccc(S(N)(=O)=O)cc1 | > 40 | 25.2 | 14.1 |  |  |  | 
COc1cc2ncnc(Nc3ccc(OC(F)(F)F)cc3)c2cc1OCCCCC(=O)Nc1ccc(S(N)(=O)=O)cc1 | > 40 | 22.4 | 8.77 |  |  |  | 
NS(=O)(=O)c1ccc(CCNC(=S)Nc2ccc3ncnc(Nc4cccc(Cl)c4)c3c2)cc1 | 2.77 | 14.8 | 11 |  |  |  | 
C#Cc1cccc(Nc2ncnc3cc(OC)c(OCCCCC(=O)Nc4ccc(S(N)(=O)=O)cc4)cc23)c1 | 7.72 | 17.7 | 18.8 | 0.0492 | 0.0485 |  | 
NS(=O)(=O)c1ccc(CCNC(=S)Nc2ccc3ncnc(Nc4cccc(Cl)c4F)c3c2)cc1 | 4.53 | 4.21 | 13 |  |  |  | 
COc1cc2ncnc(Nc3ccc(Cl)cc3)c2cc1OCCCCC(=O)Nc1ccc(S(N)(=O)=O)cc1 | > 40 | 7.12 | 31.8 |  |  |  | 
CCc1ccc(Nc2ncnc3ccc(NC(=S)Nc4ccc(S(N)(=O)=O)cc4)cc23)cc1 | 24.6 | 38.4 | 38.7 |  |  |  | 
NS(=O)(=O)c1ccc(CCNC(=S)Nc2ccc3ncnc(Nc4ccc(F)c(Cl)c4)c3c2)cc1 | 4.18 | 16.7 | 11.4 |  |  |  | 
COc1cc2ncnc(Nc3cccc(Br)c3)c2cc1OCCCCC(=O)Nc1ccc(S(N)(=O)=O)cc1 | 14.9 | 9.75 | 11.4 |  |  |  | 
COc1cc2ncnc(Nc3ccc(C(F)(F)F)cc3)c2cc1OCCCCC(=O)Nc1ccc(S(N)(=O)=O)cc1 | 14.8 | 16.9 | 12 |  |  |  | 
NS(=O)(=O)c1ccc(CCNC(=S)Nc2ccc3ncnc(Nc4ccc(Cl)c(C(F)(F)F)c4)c3c2)cc1 | 30.4 | 21.2 | 39.5 |  |  |  | 
NS(=O)(=O)c1ccc(NC(=S)Nc2ccc3ncnc(Nc4cccc(C(F)(F)F)c4)c3c2)cc1 | 10.1 | 21.7 | 7.59 | 0.0512 | 0.135 | 0.526 | 0.578
NS(=O)(=O)c1ccc(NC(=S)Nc2ccc3ncnc(Nc4cccc(Cl)c4F)c3c2)cc1 | > 40 | 13.1 | 25.1 |  |  |  | 
COc1ccc(Nc2ncnc3cc(OC)c(OCCCCC(=O)Nc4ccc(S(N)(=O)=O)cc4)cc23)cc1 | > 40 | 14.7 | 30.2 |  |  |  | 
NS(=O)(=O)c1ccc(CCNC(=S)Nc2ccc3ncnc(Nc4ccc(OCc5cccc(F)c5)c(Cl)c4)c3c2)cc1 | 6.63 | 5.77 | 5.16 | 0.0284 | 0.0667 |  | 
NS(=O)(=O)c1ccc(NC(=S)Nc2ccc3ncnc(Nc4ccc(C(F)(F)F)cc4)c3c2)cc1 | > 40 | 18 | 17.1 |  |  |  | 
Cc1ccc(Nc2ncnc3ccc(NC(=S)NCCc4ccc(S(N)(=O)=O)cc4)cc23)cc1 | 14.7 | 13.1 | 10.2 |  |  |  | 
C#Cc1cccc(Nc2ncnc3cc(OCCOC)c(OCCOC)cc23)c1 [ERLOTINIB] | 16.4 | 11.8 | 13.1 |  |  |  | 
NS(=O)(=O)c1ccc(NC(=S)Nc2ccc3ncnc(Nc4ccc(F)c(Br)c4)c3c2)cc1 | > 40 | 18.2 | 9.98 |  |  |  | 
Cc1cccc(Nc2ncnc3ccc(NC(=S)NCCc4ccc(S(N)(=O)=O)cc4)cc23)c1 | 7.05 | 16 | 20.8 |  |  |  | 
COc1cc2ncnc(Nc3cccc(Cl)c3F)c2cc1OCCCCC(=O)Nc1ccc(S(N)(=O)=O)cc1 | 10.5 | 5.56 | 6.93 | 0.0348 | 0.018 |  | 
COc1cc2ncnc(Nc3ccc(Br)cc3)c2cc1OCCCCC(=O)Nc1ccc(S(N)(=O)=O)cc1 | > 40 | 6.57 | 23.3 |  |  |  | 

SMILES | IC50 (A549) [µM] | IC50 (A-431) [µM] | IC50 (NCI-H1975) [µM] | IC50 [1] [µM] | IC50 [2] [µM] | IC50 (Carbonic anhydrase 2) [µM] | IC50 (Carbonic anhydrase 9) [µM]
Cc1cccc(Nc2ncnc3ccc(NC(=S)Nc4ccc(S(N)(=O)=O)cc4)cc23)c1 | > 40 | 23.8 | 35.4 |  |  |  | 
COc1cc2ncnc(Nc3ccc(F)c(Cl)c3)c2cc1OCCCCC(=O)Nc1ccc(S(N)(=O)=O)cc1 | 15.5 | 5.02 | 35.6 | 0.0183 | 0.0619 |  | 
NS(=O)(=O)c1ccc(CCNC(=S)Nc2ccc3ncnc(Nc4cccc(Br)c4)c3c2)cc1 | 9.36 | 17.3 | 10.8 |  |  |  | 
NS(=O)(=O)c1ccc(NC(=S)Nc2ccc3ncnc(Nc4ccc(Cl)c(C(F)(F)F)c4)c3c2)cc1 | 4.5 | 18.2 | 11.8 |  |  |  | 
COc1cc2ncnc(Nc3ccc(Cl)c(C(F)(F)F)c3)c2cc1OCCCCC(=O)Nc1ccc(S(N)(=O)=O)cc1 | 9.27 | 3.91 | 3.22 | 0.0137 | 0.0375 | 0.356 | 0.224
Cc1ccc(Nc2ncnc3ccc(NC(=S)Nc4ccc(S(N)(=O)=O)cc4)cc23)cc1 | 2.84 | 40 | 39.4 |  |  |  | 
C#Cc1cccc(Nc2ncnc3ccc(NC(=S)Nc4ccc(S(N)(=O)=O)cc4)cc23)c1 | > 40 | 15.3 | 13.4 |  |  |  | 
NS(=O)(=O)c1ccc(NC(=S)Nc2ccc3ncnc(Nc4cccc(Cl)c4)c3c2)cc1 | > 40 | 15 | 39.8 |  |  |  | 
COc1cc2ncnc(Nc3ccc(F)cc3)c2cc1OCCCCC(=O)Nc1ccc(S(N)(=O)=O)cc1 | > 40 | 18.6 | > 40 |  |  |  | 
C#Cc1cccc(Nc2ncnc3ccc(NC(=S)NCCc4ccc(S(N)(=O)=O)cc4)cc23)c1 | 3.87 | 12.5 | 12.7 |  |  |  | 
NS(=O)(=O)c1ccc(CCNC(=S)Nc2ccc3ncnc(Nc4ccc(C(F)(F)F)cc4)c3c2)cc1 | 32.4 | 26.7 | 13 |  |  |  | 
NS(=O)(=O)c1ccc(CCNC(=S)Nc2ccc3ncnc(Nc4ccc(F)c(Br)c4)c3c2)cc1 | 5.4 | 21.1 | 9.43 |  |  |  | 
NS(=O)(=O)c1ccc(NC(=S)Nc2ccc3ncnc(Nc4cccc(F)c4)c3c2)cc1 | 25.9 | 30.1 | 9.66 |  |  |  | 
NS(=O)(=O)c1ccc(CCNC(=S)Nc2ccc3ncnc(Nc4cccc(F)c4)c3c2)cc1 | 5.51 | 9.94 | 35.7 |  |  |  | 
NS(=O)(=O)c1ccc(NC(=S)Nc2ccc3ncnc(Nc4ccc(F)c(Cl)c4)c3c2)cc1 | > 40 | 37.6 | 15.8 |  |  |  | 
NS(=O)(=O)c1ccc(NC(=S)Nc2ccc3ncnc(Nc4ccc(OCc5cccc(F)c5)c(Cl)c4)c3c2)cc1 | > 40 | 29.5 | 10.3 |  |  |  | 
CCc1ccc(Nc2ncnc3ccc(NC(=S)NCCc4ccc(S(N)(=O)=O)cc4)cc23)cc1 | 16.6 | 39.6 | 9.36 |  |  |  | 
COc1cc2ncnc(Nc3cc(F)c(F)c(F)c3)c2cc1OCCCCC(=O)Nc1ccc(S(N)(=O)=O)cc1 | > 40 | 23.4 | 20 |  |  |  | 
COc1cc2ncnc(Nc3ccc(F)c(Br)c3)c2cc1OCCCCC(=O)Nc1ccc(S(N)(=O)=O)cc1 | 16 | 8.02 | 31.6 |  |  |  | 
COc1cc2ncnc(Nc3cccc(Cl)c3)c2cc1OCCCCC(=O)Nc1ccc(S(N)(=O)=O)cc1 | 11.2 | 30.4 | 33.2 |  |  |  | 
COc1cc2ncnc(Nc3ccc(OCc4cccc(F)c4)c(Cl)c3)c2cc1OCCCCC(=O)Nc1ccc(S(N)(=O)=O)cc1 | 7.86 | 7.79 | 5.67 | 0.0165 | 0.0228 |  | 
COc1ccccc1Nc1ncnc2cc(OC)c(OCCCCC(=O)Nc3ccc(S(N)(=O)=O)cc3)cc12 | 24.1 | 24.2 | 8.03 |  |  |  | 
COc1cc2ncnc(Nc3ccc(C)cc3)c2cc1OCCCCC(=O)Nc1ccc(S(N)(=O)=O)cc1 | > 40 | 35.5 | 19.2 |  |  |  | 
NS(=O)(=O)c1ccc(CCNC(=S)Nc2ccc3ncnc(Nc4cccc(C(F)(F)F)c4)c3c2)cc1 | 9.05 | 16.8 | 4.25 | 0.0426 | 0.0934 | 0.241 | 0.313
COc1ccc(Nc2ncnc3cc(OC)c(OCCCCC(=O)Nc4ccc(S(N)(=O)=O)cc4)cc23)cc1OC | > 40 | 35.4 | 9.23 |  |  |  | 
